According to patent US6689779B2, “Oxazolidinone derivatives and a process for the preparation thereof” (priority 2000, dated 2004):
In brackets after ≈: the same amount, converted by molar mass.

Tested on: ATCC 35837: Ethanmbutol resistant Mycobacterium tuberculosis
Assay: Assay for in vitro antibacterial activity, agar dilution method: ATCC 35837
Assay type: cell-based
Settings: for MIC50: Mycobacterium tuberculosis, ATCC35837, read-out: Antibacterial Activity (MIC50) ATCC 35837; for Antibacterial Activity (MIC50) ATCC 35837: agar dilution method, Ethanmbutol resistant Mycobacterium tuberculosis

Structure (SMILES) | MIC50 [µg/mL] | Antibacterial Activity (MIC50) ATCC 35837 [µg/mL]
N[C@@H]1CON=C1O [Cycloserine, reference compound] | 6.25 (≈ 61.2 µM) | 
CC(=O)NC[C@H]1CN(c2ccc(N3CCOCC3)c(F)c2)C(=O)O1 [Example U-100766, reference compound] | 1.56 (≈ 4.62 µM) | 
CC(=O)NC[C@H]1CN(c2ccc(-c3ccc(-n4cncn4)nc3)c(F)c2)C(=O)O1 [Exmp. 129, (S)-[N-3-(4-(2-(1,2,4-triazol-1-yl)pyridin-5-yl)-3-fluorophenyl)-2-oxo-5-oxazolidinyl]methyl acetamide] |  | 0.2
CC(=O)NC[C@H]1CN(c2ccc(-c3ccc(-n4cnnn4)nc3)c(F)c2)C(=O)O1 [Exmp. 136, (S)-(N-3-(4-(2-(1-tetrazolyl)-pyridin-5-yl)-3-fluorophenyl)-2-oxo-5-oxazolidinyl)methyl acetamide] |  | 0.1
CC(=O)NC[C@H]1CN(c2ccc(-c3ccc(-c4nnc(C)o4)nc3)c(F)c2)C(=O)O1 [Exmp. 137, (S)-[N-3-(4-(2-(5-methyl-(1,3,4)-oxadiazol-2-yl)-pyridin-5-yl)-3-fluorophenyl)-2-oxo-5-oxazolidinyl]methyl acetamide] |  | 0.1
CC(=O)NC[C@H]1CN(c2ccc(-c3ccc(-c4noc(C)n4)nc3)c(F)c2)C(=O)O1 [Exmp. 138, (S)-[N-3-(4-(2-(5-methyl-(1,2,4)-oxadiazol-3-yl)pyridin-5-yl)-3-fluorophenyl)-2-oxo-5-oxazolidinyl]methyl acetamide] |  | 0.1
CC(=O)NC[C@H]1CN(c2ccc(-c3ccc(-c4nnnn4C)nc3)c(F)c2)C(=O)O1 [Exmp. 139, (S)-[N-3-(4-(2-(1-methyl-5-tetrazolyl)-pyridin-5-yl)-3-fluorophenyl)-2-oxo-5-oxazolidinyl]methyl acetamide] |  | 0.1
CC(=O)NC[C@H]1CN(c2ccc(-c3ccc(-c4nnn(C)n4)nc3)c(F)c2)C(=O)O1 [Exmp. 140, (S)-[N-3-(4-(2-(2-methyl-5-tetrazolyl)-pyridin-5-yl)-3-fluorophenyl)-2-oxo-5-oxazolidinyl]methyl acetamide] |  | 0.1
CC(=O)NC[C@H]1CN(c2ccc(-c3ccc(N4CCOC4=O)nc3)c(F)c2)C(=O)O1 [Exmp. 143, (S)-[N-3-(4-(2-(2-oxo-(1,3)-oxazolidin-3-yl)-pyridin-5-yl)-3-fluorophenyl)-2-oxo-5-oxazolidinyl]methyl acetamide] |  | 0.1
CC(=O)NC[C@H]1CN(c2ccc(-c3ccc(-c4nnn[nH]4)nc3)c(F)c2)C(=O)O1 [Exmp. 152, (S)-[N-3-(4-(2-(5-Tetrazolyl)-5-pyridinyl)-3-fluorophenyl)-2-oxo-5-oxazolidinyl]methyl Acetamide] |  | >25
CO[C@H]1/C=C/O[C@@]2(C)Oc3c(C)c(O)c4c(O)c(c(/C=N/N5CCN(C)CC5)c(O)c4c3C2=O)NC(=O)/C(C)=C\C=C\[C@H](C)[C@H](O)[C@@H](C)[C@@H](O)[C@@H](C)[C@H](OC(C)=O)[C@@H]1C [Rifampin, reference compound] | 0.2 (≈ 0.243 µM) | 
